This note sets out measurements from patent US8685371B2, “Agents for detecting and imaging cell death” (Cambridge Enterprise Limited, priority 2008, dated 2014).

“And” between values parts separate entries of the source, which are not always exact repeats. Equal entries are not always repeated. Where two headings read alike, the source gives them in different places.

For orientation: Kd means the equilibrium constant for the complex coming apart.

Test in all cases: Surface plasmon resonance (SPR) binding to phosphatidylserine-coated L1 chip
Background: Surface plasmon resonance follows binding to a sensor surface in real time, without labels.

The target of assay [1] is T1, Rattus norvegicus synaptotagmin I C2A domain, wild type (Rattus norvegicus, UniProt P21707).
T1 construct: GST (N); made in house; host or cells: E. coli BL21
To be noted: FIG. 8; thermal equilibrium SPR data, 1:1 Langmuir binding model, protein 5-95 nM, 37° C., 2 mM CaCl2, pH 7.4; read-out: dissociation constant (KD). The method, then:
(§1) Large multilamellar vesicles (LMVs) were prepared using three types of phospholipids (Phosphatidylserine, PS; Phosphatidylethanolamine, PE and Phosphatidylcholine, PC, Avanti Polar Lipids, Alabaster, Ala., USA). A sample of 2.6 μmol of phospholipids (PS:PE:PC mixture in chloroform; molar ratio 35:50:15) was dried under a gentle stream of nitrogen for half an hour and resuspended in 2.6 mL of C2A binding buffer (HBS=20 mM HEPES, 150 mM NaCl, pH 7.4, containing 2 mM CaCl2), by vigorous vortex mixing.
Surface Plasmon Resonance (SPR) analysis was performed on L1 sensor chips using a Biacore T100 system (Biacore, GE Healthcare). […]
Each protein solution was prepared automatically by the system at varying concentrations from 0 to 100 nM or from 5 nM to 75 nM using automated mix fraction preparation, and all injections were conducted in duplicate in C2A binding buffer at a flow rate of 30 μL min^−1 and 37° C. All concentrations were analyzed in duplicate. Protein affinity for PS was evaluated by estimating the thermal equilibrium affinity dissociation constants (KD), obtained from the response values 4 s before the end of the association phase of the corresponding interaction sensorgrams (FIG. 8). […]

Assay [2] has as its target T2, Rattus norvegicus synaptotagmin I C2A domain variant C2Am, S78C (S217C of full-length synaptotagmin I), SEQ ID NO: 1 (Rattus norvegicus, UniProt P21707, S217C).
T2 construct: GST (N, cleaved yes); linker between GST and C2A (part after the thrombin site) (N); made in house; host or cells: E. coli BL21
To be noted: 37° C., 2 mM CaCl2, pH 7.4.
From the text: (§2) The Rattus norvegicus synaptotagmin sequence was acquired using the NCBI Genbank service (sequence identity NM_001033680; NM_001033680.2) and the C2A domain was selected from this sequence. Three candidate cysteine mutants were selected at: Ser217, Gln154, Asn248 (see FIG. 2). Appropriate primers for mutagenesis were designed with the use of Quikchange Primer Design software. The C2A-containing pGEX-2T vector (GE Healthcare, Chalfont St Giles, UK) was isolated from BL21 E. coli cells and underwent a double restriction digest to confirm its identity. Mutagenesis was performed by the Stratagene QuikChange Site-Directed Mutagenesis kit. E. coli DH5α competent cells were transformed with the mutant plasmid by heat shock and the amplified vector then isolated and sequenced. Finally, E. coli BL21 cells were transformed with the vector by electroporation.
(§3) S217C (position 78 of the C2A domain; position 217 of full-length Synaptotagmin I) mutant was selected as the best expressed site-directed mutant of C2A (C2Am).
as §1
Surface Plasmon Resonance (SPR) analysis was performed on L1 sensor chips using a Biacore T100 system (Biacore, GE Healthcare).
In some experiments, the chip flow cells were washed with a 2-min pulse of a mixture of isopropanol/NaOH 50 mM (2:3 volume) at 5 μL, min^−1, and one coated with 5 μL of a suspension of SMVs containing 1 mM of phospholipids (at 1 μL min^−1), generating an average relative response of ca. 2,000 RU (relative units). Unbound multilamellar material was removed from the chip after SMV injection, by applying three 20s regeneration pulses of sodium hydroxide (50 mM, at 20 μL min^−1).
In other experiments, the chip flow cells were washed with two, 30 s pulses of 20 mM, 3-[(3Cholamidopropyl)dimethylammonio]-1-propanesulfonate (CHAPS, at 30 μL min−1), then one flow cell (test) was coated with a suspension of test SMVs (PS:PE:PC) containing 1 mM of phospholipids (at 5 μL min−1), until an average relative response of ca. 5000 RU (relative units) was reached. Unbound multilamellar material was removed from the lipid bilayer after SMV injection, by applying two, 30 s pulses of sodium hydroxide (50 mM, at 30 μL min−1).
Another flow cell was left uncoated as a control path. In some experiments, another flow cell (control) was coated with a suspension of control SMVs (PE:PC) containing 1 mM of phospholipids (at 5 μL min−1), until an average relative response of ca. 5000 RU (relative units). Control SMVs were prepared using PE and PC (molar ratio 77:23), and unbound material removed as above
After a stable baseline had been achieved, the proteins were allowed to interact sequentially with the chip surface of the two flow cells of interest, for 2 min (association phase) and 1 min (dissociation phase) at 30 μL min^−1 or for 60 s (association phase) at 40 μL min^−1 at 37° C. The phospholipid bilayer was regenerated using a 15 s or 20 s pulse of HBS containing 10 mM NaEDTA, or (HBS, 20 mm EDTA, pH 7.4) at 40 μL min^−1, after each individual injection.
Each protein solution was prepared automatically by the system at varying concentrations from 0 to 100 nM or from 5 nM to 75 nM using automated mix fraction preparation, and all injections were conducted in duplicate in C2A binding buffer at a flow rate of 30 μL min^−1 and 37° C. All concentrations were analyzed in duplicate. […]

Assay [3] has as its target T3, C2Am-AlxAF647: Rattus norvegicus synaptotagmin I C2A domain variant C2Am, S78C (S217C of full-length synaptotagmin I), SEQ ID NO: 1, labelled at cysteine-78 wit (Rattus norvegicus, UniProt P21707, S217C).
T3 construct: GST (N, cleaved yes); linker between GST and C2A (part after the thrombin site) (N); made in house; host or cells: E. coli BL21
To be noted: 37° C., 2 mM CaCl2, pH 7.4.
From the text: as §2, §3
The mutant protein (C2Am) was covalently labeled with the fluorochrome Alexa Fluor 647 (AlxAF647), via a reaction between the cysteine-78 residue with the maleimide group of Alexa Fluor 647 C2 maleimide (Invitrogen). Briefly, the protein was reduced using 10 mM DTT for half an hour at room temperature. The protein was then washed in a 5-KDa vivaspin concentrator (Sartorius, Epsom, UK) in HNE buffer (20 mM HEPES, 100 mM NaCl, 5 mM EDTA, pH 7.4). This removed any residual DTT, which interferes with the conjugation reaction. The protein was kept at a concentration in the range 50-100 μM, and approximately a 10-fold molar excess of the fluorescent maleimide dye was added. The reaction was allowed to proceed on a magnetic stirrer at 4° C. overnight. Gel filtration was used to separate the modified protein from unreacted dye. Electrospray ionisation (ESI) mass spectrometry was used to confirm successful modification of the protein, which yielded a single species of approximately 17204 Da (C2Am-AlxAF647). ESI mass spectrometry of Annexin V-Alexa Fluor647™ was also performed. Briefly, samples were desalted using Millipore mC18 Ziptips and eluted with 50% MeCN/0.2% formic acid. Samples were analyzed by direct infusion at a flow rate of […] into a Waters QtofMicro, using 70% MeOH/0.2% formic acid as the mobile phase. Typical settings: capillary 3000V, cone 90V, capillary temperature 80° C., desolvation temperature 150° C., calibration by myoglobin and/or trypsinogen collected later in the same file. Deconvolution was conducted using Waters MassLynx MaxEnt 1 software (Waters Ltd, Manchester, UK). […]

Where [4] appears, read: kinetic analysis of SPR data, read-out: KD (kinetics).

T3 sequence (P21707 140-267 S217C): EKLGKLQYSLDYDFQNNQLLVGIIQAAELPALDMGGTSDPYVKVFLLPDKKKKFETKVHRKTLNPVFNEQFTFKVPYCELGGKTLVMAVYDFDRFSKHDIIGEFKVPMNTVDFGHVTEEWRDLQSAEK
T2 sequence (P21707 140-267 S217C): as above
T1 sequence (P21707 141-260 limits assumed): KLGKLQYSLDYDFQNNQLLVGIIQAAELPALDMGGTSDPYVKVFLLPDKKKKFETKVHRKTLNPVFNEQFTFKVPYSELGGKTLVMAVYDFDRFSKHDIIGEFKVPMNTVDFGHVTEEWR

With Phosphatidylserine, the Kd in assay [1] is 0.0485 ± 0.0035 µM; in assay [2] (FIG. 8, thermal equilibrium SPR data, 1:1 Langmuir binding model, protein 5-95 nM, read-out: dissociation constant (KD)) it was 0.0494 ± 0.0049 µM; in assay [2] (affinity analysis of SPR data, duplicate injections, listed as PS, read-out: KD (affinity)), 0.0554 ± 0.0035 µM; in assay [2] (affinity analysis of SPR data, duplicate injections, read-out: KD (affinity)), ~0.055 µM and 0.0554 µM; in assay [2] (setting [4]) it was 0.0542 µM; in assay [3] (affinity analysis of SPR data, read-out: KD (affinity)) it was 0.071 ± 0.0069 µM. For the same substance, the Kd in assay [3] (setting [4]) was 0.0879 µM. Also, the “ka (kinetics)” value is 2.01e+06 M⁻¹ s⁻¹ in assay [2] (kinetic analysis of SPR data) and 2.14e+06 M⁻¹ s⁻¹ in assay [3] (kinetic analysis of SPR data). Moreover, the results for the “kd (kinetics)” value in assay [2] (kinetic analysis of SPR data) and in assay [3] (kinetic analysis of SPR data) were 0.110 s⁻¹ and 0.188 s⁻¹, respectively.
